pKi: −log10 of the molar value.

In this assay the target is Gamma-aminobutyric acid receptor subunit alpha-1/beta-2/gamma-2 (Rattus norvegicus, UniProt P62813+P63138+P18508). In words: Binding affinity for recombinant rat GABA-A receptor alpha-1-beta-2-gamma-2 subunits expressed in HEK293 cells.
Sequence of Gamma-aminobutyric acid receptor subunit alpha-1/beta-2/gamma-2 (P62813 whole entry): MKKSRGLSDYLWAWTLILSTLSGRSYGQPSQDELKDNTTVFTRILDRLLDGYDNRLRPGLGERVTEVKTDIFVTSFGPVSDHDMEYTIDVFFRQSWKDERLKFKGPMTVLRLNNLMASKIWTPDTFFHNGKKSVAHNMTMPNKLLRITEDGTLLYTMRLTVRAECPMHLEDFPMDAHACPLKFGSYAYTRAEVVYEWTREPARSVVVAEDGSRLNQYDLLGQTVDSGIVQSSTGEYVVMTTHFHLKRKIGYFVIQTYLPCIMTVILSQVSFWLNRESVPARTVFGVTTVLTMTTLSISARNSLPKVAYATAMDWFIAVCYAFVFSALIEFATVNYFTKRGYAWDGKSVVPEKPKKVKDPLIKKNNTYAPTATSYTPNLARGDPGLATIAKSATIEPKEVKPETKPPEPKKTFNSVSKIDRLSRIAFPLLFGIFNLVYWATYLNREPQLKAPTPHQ
Sequence of Gamma-aminobutyric acid receptor subunit alpha-1/beta-2/gamma-2 (P63138 whole entry): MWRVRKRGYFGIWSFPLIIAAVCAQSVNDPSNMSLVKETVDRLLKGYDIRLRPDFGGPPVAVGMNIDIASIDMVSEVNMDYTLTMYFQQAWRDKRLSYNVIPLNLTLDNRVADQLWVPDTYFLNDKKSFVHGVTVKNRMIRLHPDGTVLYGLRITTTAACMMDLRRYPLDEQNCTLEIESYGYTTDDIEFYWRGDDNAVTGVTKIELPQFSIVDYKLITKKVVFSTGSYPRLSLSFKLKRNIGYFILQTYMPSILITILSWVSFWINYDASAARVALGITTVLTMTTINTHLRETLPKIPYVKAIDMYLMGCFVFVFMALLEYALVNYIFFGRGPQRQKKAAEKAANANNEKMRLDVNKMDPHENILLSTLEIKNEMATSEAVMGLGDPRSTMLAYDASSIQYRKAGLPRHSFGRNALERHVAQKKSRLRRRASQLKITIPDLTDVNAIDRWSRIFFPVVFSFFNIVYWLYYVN
Sequence of Gamma-aminobutyric acid receptor subunit alpha-1/beta-2/gamma-2 (P18508 whole entry): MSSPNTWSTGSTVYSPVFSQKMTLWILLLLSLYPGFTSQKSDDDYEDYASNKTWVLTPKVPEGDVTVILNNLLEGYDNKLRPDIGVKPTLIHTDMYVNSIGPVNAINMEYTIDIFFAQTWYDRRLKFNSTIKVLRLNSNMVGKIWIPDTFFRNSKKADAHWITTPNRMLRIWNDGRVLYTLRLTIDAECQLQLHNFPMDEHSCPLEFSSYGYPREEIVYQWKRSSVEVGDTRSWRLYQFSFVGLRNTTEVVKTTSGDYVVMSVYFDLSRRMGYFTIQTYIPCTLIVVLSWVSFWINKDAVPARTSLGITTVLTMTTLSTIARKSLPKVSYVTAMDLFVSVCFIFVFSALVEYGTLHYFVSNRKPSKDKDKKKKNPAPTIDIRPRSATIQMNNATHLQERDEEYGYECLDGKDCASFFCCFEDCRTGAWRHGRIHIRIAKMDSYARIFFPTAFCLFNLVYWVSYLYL

By pKi is commonly meant the negative decadic logarithm of the Ki, by convention in mol/L. Turning to `O=c1c(-c2ccsc2)cnc2c(-c3cccc(Br)c3)c[nH]n12` [3-(3-Bromo-phenyl)-6-thiophen-3-yl-4H-pyrazolo[1,5-a]pyrimidin-7-one], the pKi was 8.00.
The value for `O=c1c(-c2ccsc2)cnc2c(-c3cccc(C(F)(F)F)c3)c[nH]n12` [6-Thiophen-3-yl-3-(3-trifluoromethyl-phenyl)-4H-pyrazolo[1,5-a]pyrimidin-7-one] was 8.00.
